In paper PMC3749181, “Rapid Identification of Antifungal Compounds against Exserohilum rostratum Using High Throughput Drug Repurposing Screens” (PLoS ONE, 2013):
“And” between values parts separate entries of the source, which are not always exact repeats. Equal values may be shown once. Read-outs that look alike come from different tables or passages of the source.

How the values were obtained:
E. rostratum = tested on: E. rostratum; set-up: method as in earlier work; conditions: filamentous fungi M38-A2, this isolate; cited from earlier work
[1] = tested on: E. rostratum hyphal fragments; assay: colony formation assay of hyphal fragments; assay type: cell-based, Exserohilum rostratum; conditions: 2 times respective IC50, 37°C, 24 h; p<0.01
Experimental: 10 µl of hyphal suspension (processed as described above) was transferred to 1.7 mL microfuge tubes, each containing 28 nM amphotericin B, 242 nM posaconazole, or 10% DMSO in 1 ml PBS. Tubes containing hyphae and drug were incubated at 37°C in a shaking incubator for 24 h, then 200 µl of the hyphae drug suspension was spread on Yeast Extract Peptone Dextrose (YPD) plates for 24 h at 30°C and the number of colony forming units were scored. The experiments were performed in triplicate.
Mixtures were cultured at 37°C in a shaking incubator for 24 h, then the hyphal suspensions were inoculated on Yeast Extract Peptone Dextrose (YPD) plates that were incubated for 1 day. The number of colonies on each YPD plate was counted.

[2] = tested on: E. rostratum hyphal fragments; assay: hyphal fragment fungicidal ATP content assay (PBS, 1536-well); assay type: cell-based, Exserohilum rostratum; conditions: for IC50 / Emax: Exserohilum rostratum; for Emax / Hyphae % Max. Resp. / Hyphae % M. Res.: 46 µM Amphotericin B = 100%
Experimental: (§1) Conidia and hyphae of E. rostratum were obtained as described by Richard et al., with the following modifications. Briefly, conidia were harvested from Potato Dextrose Agar (PDA) cultured media with 0.05% Tween 80, and the conidial suspension was filtered using a Cell Strainer (100 µm, BD Falcon REF 352340). After centrifugation at 700g for 10 min, the suspension was decanted and conidia were resuspended at 1×10^5 per ml in RPMI and counted in a hemocytometer. Hyphae were harvested from yeast extract peptone dextrose (YPD) culture media with 0.05% Tween 80. Hyphal fragments were sized by vortexing 15 sec twice with 0.4 mm glassbeads, and the hyphae suspension was filtered by cheese cloth twice. […] To normalize concentrations of hyphal fragments for batch to batch consistency, carbohydrate analysis was performed by a phenol-sulfuric acid method as previously described. The final stock concentration of hyphae was adjusted to 1.0 (OD490) per 100 µl.
(§2) The ATPLite assay kit, consisting of luciferase/luciferin and detergent, was used to quantitate cellular ATP levels as a marker for cell viability (Table 1). For assay development, hyphal fragments or conidia in PBS were plated in a seeding density of 3,750, 7,500 and 15,000 cellular particles/well with a final volume of 5 µl/well using the Multidrop-Combi dispenser in white 1536-well plates. Conidia or hyphae fragments were incubated for 24 h at 37°C in a 5% CO2 humidified atmosphere. ATPLite detection reagents were added at 4 µl/well. The assay plates were incubated at room temperature for 15 minutes before reading luminescence intensity on a ViewLux plate reader (Perkin Elmer, Waltham, MA). Conidia suspended in RPMI medium were inoculated at concentrations of 62.5, 125 and 250 conidia/well with a final volume of 5 µl/well in white 1536-well plates. The conidia assay was developed and optimized in the same way as the hyphal assay.
(§3) The LOPAC library (Sigma-Aldrich) has been extensively used for HTS assay validations, [18]. The NIH Chemical Genomics Center Pharmaceutical (NPC) collection was constructed in-house through a combined effort of compound purchasing and custom synthesis and recently expanded to 4096 compounds. […] 2.5 µl/well PBS was dispensed into 1536-well plates using a Multidrop-Combi dispenser. Compound in DMSO solution was transferred in a volume of 23 nl/well using a NX-TR pintool station (WAKO Scientific Solutions, San Diego, CA). This additional PBS step for compound addition was designed to prevent the potential fungal contamination of compound libraries. The hyphal fragments in PBS were then added at 2.5 µl/well for a final seeding density of 15,000 hyphal fragments/well using the Multidrop-Combi dispenser. The final compound concentration was 46 µM in the primary screen. The assay plates were incubated for 24 h at 30°C before the detection of cellular viability with the ATP content assay. Screen of conidia was performed in a similar way except that PBS was replaced with RPMI medium and conidia were plated for a final seeding density of 250 conidia/well.
(§4) The primary screen data and curve fitting were analyzed using software developed internally at the NIH Chemical Genomics Center (NCGC). Total signals for cellular viability (100% cellular viability) were calculated from the wells with DMSO solvent and the complete cell killing (0% cellular viability) was calculated from 46 µM amphotericin B treated wells. […] All values were expressed as the mean +/− SD (n≥3).

E. rostratum conidia = assay: conidia growth inhibition ATP content assay (RPMI, 1536-well); assay type: cell-based, Exserohilum rostratum; conditions: for Emax / Conidia % Max. Resp. / Conidia % M. Res.: 46 µM Amphotericin B = 100%
Experimental: as §1, §2, §3, §4

SH-SY5Y cells = assay: SH-SY5Y cytotoxicity counter-screen (ATP content assay); assay type: cell-based, Human; conditions: for SH-SY5Y % Max. Resp.: Table 2, SH-SY5Y, inact. = no significant activity at 46 µM; for cytotoxicity in SH-SY5Y mammalian cells: concentration up to 46 µM; for SH-SY5Y % M. Res.: Inact. = no significant activity at 46 µM
Experimental: Human neuroblastoma SH-SY5Y cell line (Catalog No. CRL-2266) was purchased from ATCC (Manassas, VA). SH-SY5Y cell line was cultured in 175-cm^2 tissue culture flasks (Costar, Cambridge, MA) with 30 ml of growth medium at 37°C in a 5% CO2 humidified atmosphere. Growth medium was made with Dulbecco's Modified Eagle Medium: Nutrient Mixture F-12 with 10% fetal bovine serum (FBS). Growth medium was replaced every other day and cells were passed at 75% confluence.
as §2
Two small known compound libraries including the LOPAC (1280 compounds) and approved drugs (4096 compounds) were screened in parallel using the above optimized assays for hyphae and conidia in 1536-well plates (Fig. 4). […] A mammalian SH-SY5Y cell line was used in parallel as a counter-screen with the same ATP content assay kit to assess the specificity of these compounds for E. rostratum.

[3] = Figure 5, read-out: IC50 Hyphae
[4] = Table 2, inact. = no significant activity in the primary screen, read-out: Hyphae % Max. Resp.
[5] = Table 2, 24 h, inact. = no significant activity in the primary screen, read-out: Hyphae IC50
[6] = Exserohilum rostratum, 24 h, Table 2, 24 h, inact. = no significant activity at the highest compound concentration (46 µM), read-out: Conidia IC50
[7] = Exserohilum rostratum, Figure 5, read-out: IC50 Conidia
[8] = Exserohilum rostratum, Table 2, inact. = no significant activity at 46 µM, read-out: Conidia % Max. Resp.
[9] = Table 2, inact. = no significant activity in the primary screen
[10] = Table 2, 24 h, inact. = no significant activity in the primary screen
[11] = Table 2, inact. = no significant activity at 46 µM
[12] = Table S1, Inact. = no significant activity in the primary screen, read-out: Hyphae % M. Res.
[13] = Exserohilum rostratum, Table S1, Inact. = no significant activity at 46 µM, read-out: Conidia % M. Res.
[14] = Table S1, 46 µM Amphotericin B = 100%
[15] = Table S1, Inact. = no significant activity at the highest compound concentration (46 µM)
[16] = Table S1, Inact. = no significant activity in the primary screen
[17] = Table S1, Inact. = no significant activity at 46 µM

Row | Molecule | hyphae-derived colony forming units (CFU) compared to DMSO control [1] | Emax [2, 4] | IC50 [2, 5] | IC50 (E. rostratum conidia; [6]) | Emax (E. rostratum conidia; [8]) | SH-SY5Y % Max. Resp. (SH-SY5Y cells; 46 µM Amphotericin B = 100%) | SH-SY5Y % Max. Resp. (SH-SY5Y cells) | SH-SY5Y % M. Res. (SH-SY5Y cells; [14]) | SH-SY5Y IC50 (SH-SY5Y cells; [15]) | further results
1 | C[C@@H](c1ncncc1F)[C@](O)(Cn1cncn1)c1ccc(F)cc1F [Voriconazole] | significantly reduced | 94% | 2600 nM | 2900 nM | 101% | inact. | inact. | – | – | value determined from the microdilution method (E. rostratum): 2 µg/ml and 5.7 µM; IC50 [2, 3]: 2820 nM; IC50 ([2]; read-out: hyphae IC50): 2640 nM; IC50 (E. rostratum conidia; [7]): 3700 nM; IC50 (E. rostratum conidia; Exserohilum rostratum, read-out: conidia IC50): 2910 nM; cytotoxicity in SH-SY5Y mammalian cells (SH-SY5Y cells): no significant cytotoxicity
2 | N#C/C(=C1/SCC(c2ccccc2Cl)S1)n1ccnc1 (stereo not drawn) [Lanoconazole] | significantly reduced | 65% | 203 nM | 380 nM | 103% | inact. | inact. | – | – | IC50 [2, 3]: 459 nM; IC50 (E. rostratum conidia; [7]): 818 nM; cytotoxicity in SH-SY5Y mammalian cells (SH-SY5Y cells): no significant cytotoxicity
3 | C=CC[C@@H]1/C=C(\C)C[C@H](C)C[C@H](OC)[C@H]2O[C@@](O)(C(=O)C(=O)N3CCCC[C@H]3C(=O)O[C@H](/C(C)=C/[C@@H]3CC[C@@H](O)[C@H](OC)C3)[C@H](C)[C@@H](O)CC1=O)[C@H](C)C[C@@H]2OC [Tacrolimus] | significantly reduced | 83% | 32 nM | 24 nM | 101% | inact. | inact. | – | – | IC50 [2, 3]: 31 nM; IC50 (E. rostratum conidia; [7]): 36 nM; cytotoxicity in SH-SY5Y mammalian cells (SH-SY5Y cells): no significant cytotoxicity
4 | Bleomycin sulfate | – | – | – | – | – | inact. | inact. | – | – | Hyphae % Max. Resp. [2, 9]: inact.; Hyphae IC50 [2, 10]: inact.; Conidia % Max. Resp. (E. rostratum conidia; [11]): 98%; IC50 (E. rostratum conidia; read-out: Conidia IC50): 1240 nM
5 | N#C/C(=C1/SC[C@@H](c2ccc(Cl)cc2Cl)S1)n1ccnc1 [Luliconazole] | significantly reduced | 82% | 6400 nM | 4390 nM | 100% | inact. | inact. | Inact. | Inact. | Emax [2, 12]: 82%; Emax (E. rostratum conidia; [13]): 100%
6 | N[C@@H](COP(=O)(O)O)C(=O)O [Dexfosfoserine] | – | – | – | – | – | – | – | Inact. | Inact. | Hyphae % M. Res. [2, 16]: Inact.; Hyphae IC50 [2, 16]: Inact.; Conidia % M. Res. (E. rostratum conidia; [17]): Inact.; Conidia IC50 (E. rostratum conidia; [15]): Inact.
7 | N=C(N)c1ccc(OCCCCCOc2ccc(C(=N)N)cc2)cc1 [Pentamidine isethionate] | – | 82% | 468 nM | 1110 nM | 108% | inact. | inact. | – | – | –
8 | CCCCCCOc1ccccc1C(N)=O [Exalamide] | – | – | – | – | – | – | – | Inact. | Inact. | Hyphae % M. Res. [2, 16]: Inact.; Hyphae IC50 [2, 16]: Inact.; Conidia % M. Res. (E. rostratum conidia; [17]): Inact.; Conidia IC50 (E. rostratum conidia; [15]): Inact.
9 | CC1(C)CCC(NC(=O)[C@@H](N)CCC(=O)O)CC1 [Neboglamine] | – | – | – | – | – | – | – | Inact. | Inact. | Hyphae % M. Res. [2, 16]: Inact.; Hyphae IC50 [2, 16]: Inact.; Conidia % M. Res. (E. rostratum conidia; [17]): Inact.; Conidia IC50 (E. rostratum conidia; [15]): Inact.
10 | CC(=O)[O][Hg][c]1ccccc1 [Phenylmercuric acetate] | – | – | – | – | – | 96% | 0.417% | – | – | Hyphae % Max. Resp. [2, 9]: inact.; Hyphae IC50 [2, 10]: inact.; Conidia % Max. Resp. (E. rostratum conidia; [11]): 99%; IC50 (E. rostratum conidia; Table 2, 24 h, inact. = no significant activity at the highest compound concentration (46 µM), read-out: Conidia IC50): 146 nM
11 | CCC(C)n1ncn(-c2ccc(N3CCN(c4ccc(OCC5COC(Cn6cncn6)(c6ccc(Cl)cc6Cl)O5)cc4)CC3)cc2)c1=O (stereo not drawn) [Itraconazole] | significantly reduced | 80% | 2190 nM | 1240 nM | 100% | inact. | inact. | – | – | IC50 [2, 3]: 1970 nM; IC50 (E. rostratum conidia; [7]): 1270 nM; cytotoxicity in SH-SY5Y mammalian cells (SH-SY5Y cells): no significant cytotoxicity
12 | COC1=CC(=O)C[C@@H](C)[C@]12Oc1c(Cl)c(OC)cc(OC)c1C2=O [Griseofulvin] | – | – | – | – | – | – | – | Inact. | Inact. | Hyphae % M. Res. [2, 16]: Inact.; Hyphae IC50 [2, 16]: Inact.; Conidia % M. Res. (E. rostratum conidia; [17]): Inact.; Conidia IC50 (E. rostratum conidia; [15]): Inact.
13 | CN(C)C(=S)SC(=S)N(C)C [Tetramethylthiuram monosulfide] | – | – | – | – | – | – | – | Inact. | – | Emax [2, 12]: 59%; IC50 ([2]; Table S1, Inact. = no significant activity in the primary screen, read-out: Hyphae IC50): 67900 nM; IC50 (E. rostratum conidia; Exserohilum rostratum, read-out: Conidia IC50): 3400 nM; Emax (E. rostratum conidia; [13]): 23%; SH-SY5Y IC50 (SH-SY5Y cells): Inact.
14 | O=C1C2CC=CCC2C(=O)N1SC(Cl)(Cl)Cl (stereo not drawn) [Captan] | – | 82% | 1170 nM | – | – | 100% | 18.6% | – | – | Conidia % Max. Resp. (E. rostratum conidia; [11]): inact.; Conidia IC50 (E. rostratum conidia; Table 2, 24 h, inact. = no significant activity at the highest compound concentration (46 µM)): inact.
